The record followed here is US4078083A, “Novel prostanoic acids” (Hoechst Aktiengesellschaft, priority 1973, dated 1978).

Converted amounts (≈) assume the structure as drawn.

Experiment [1] concerns unstriped musculature (isolated rat stomach). The experiment in a line: Effect on the unstriped musculature (isolated rat stomach according to Vane). The settings on record: for EC50: 37° C, activity relative to contraction after 600 ng/ml PGA2, Table 1, read-out: Action on the unstriped musculature (isolated rat stomach) ED50. The experiment is classed as cell-based, rat (Wistar). On the procedure: Effect on the unstriped musculature (isolated rat stomach according to Vane, Br. J. Pharmac. Chemother., 12 344 (1957)).
The test was carried out on Wistar rats of both sexes having a weight of 200 to 220 g. The animals were killed by a blow onto the neck, the stomach was rapidly taken out and put into a Petri dish containing a pre-heated cancer solution. The fundus which is easily to be distinguished from the pyloric part because of its grey color, was separated and opened longitudinally by a longitudinal cut. Transversal cuts in counter-direction to each other led to a stripe which could be hung into the organ bath. The organ bath contained the usual cancer solution which was maintained at a temperature of 37° C and which was risen in bubbles with a mixture of 95 % O2 and 5 % CO2. A writing lever charged with 1 g served to register on a kymograph the contractions produced by adding the substance to be examined to the organ bath. The test criterion was the contraction occurring after the addition of the substance to be examined. The degree of activity was determined by comparing the contraction occurring after 600 ng/ml PGA2. The values expressed in % with regard to the comparison preparation were used to draw a dose-activity-curve which allowed to determine the medium activity dose.
All substances were present as stock-solutions in absolute alcohol and were diluted to their final concentration with phosphate buffer (pH = 7.4).

The subject of experiment [2] is bronchospasm by histamine (Guinea pig). The experiment can be described thus: Bronchospasmolytic activity according to Konzett-Rossler, histamine bronchospasm. It counts as in vivo. The settings on record: for ED50: Cavia porcellus, iv, Guinea pig, irritant histamine, read-out: Bronchospasmolysis ID50, Histamine. On the procedure: (§1) test of intravenously administered preparations for bronchospasmolytic activity according to Konzett-Rossler.
(§2) Except for irrelevant modifications, the test arrangement used largely corresponded to the description given by H. Konzett and R. Rossler, Arch. exp. Path. Pharmakol. 195, 71 (1940)). Test animals were male white Guinea pigs having a weight of 400 to 500 g. They were anesthesized with hexobarbital and urethane. All preparations to be administered were diluted with phosphate buffer (pH = 7.4) and administered in a volume of 0.1 ml.
(§3) Physiological or pharmacological effects were registered by measuring the air volume in the lung when the maximum blowing pressure was kept constant and a constant volume was maintained by respiration above atmospheric pressure. Capacity modifications in the respiratory tract show themselves in an increase or decrease of the air volume absorbed by the lung under the given constant blowing pressure. To produce a heavy bronchospasm acetylquoline or histamine were injected by the intravenous route. The dosage unit of the irritant was chosen such that an about 70 to 80 % decrease of the absorption capacity of the lung was obtained. The substance to be examined was administered by the intravenous route in the V. jugularis. 30 seconds thereafter the already evaluated dosage unit of the irritant was injected once more. The medium inhibition dose was red off from the dose activity curve drawn either graphically or by means of regression analysis.

Experiment [3] concerns bronchospasm by acetylquoline (Guinea pig). The experiment in a line: Bronchospasmolytic activity according to Konzett-Rossler, acetylquoline bronchospasm. The experiment is classed as in vivo. The settings on record: Cavia porcellus, iv, irritant acetylquoline, read-out: Bronchospasmolysis ID50, acetylquoline. On the procedure: as §1, §2, §3
The subject of another experiment is blood pressure (cat). The experiment in a line: Test for the effect on the blood circulation (hypotensive properties, Kannegiesser and Lee). The experiment is classed as in vivo. On the procedure:
Test for the effect on the blood circulation
The hypotensive properties were examined in accordance with the methods described by Kannegiesser and Lee, Nature 229, 498 (1971).
Test animals were cats of both sexes having a weight of 2.0 to 3.0 kg.
The animals were anesthesized with pentobarbital in an amount of 1.7 to 2.8 mg/ml in 0.9 % NaCl-solution as continuous infusion with 5 mg/kg/hour and pretreated with pentolinium (Ansolysen, May & Baker) with 10 mg/animal by the intraperitoneal route. The test substances were administered through the Vena jugularis. The blood pressure was measured in the A. carotis ext. directly and recorded by means of a Statham pressure sensor on a multi-channel recorder.
The maximum change of the systolic and diastolic blood pressure was measured in mm Hg.
All test preparations were present as stock solutions in absolute alcohol and were diluted to the end concentration immediately before the test beginning in phosphate buffer (pH = 7.4).

Regarding `CCCCCC(O)/C=C/C1CCC(=O)C1CCCCC(C)CC(=O)O` (mixture of isomers) [Example 7, rac. 15-α-Hydroxy-3-methyl-9-oxo-13-trans-prostenoic Acid], in experiment [1] (isolated rat stomach), the EC50 was found to be 1 µg/mL. Further, the ED50 in experiment [2] was found to be 4 µg/kg; in experiment [3], 1 µg/kg. In the experiment with blood pressure (cat) (after 5 μ/kg i.v. (cat)), the “Blood pressure (modifications in mm Hg), first value (systolic)” value (“Blood pressure … (systolic)” for short) is listed as -10 mm Hg. Also, the “Blood pressure (modifications in mm Hg), second value (diastolic)” value (shortened to “Blood pressure … (diastolic)”) in the experiment on blood pressure (cat) (after 5 μ/kg i.v. (cat)) was -20 mm Hg.

With `CCCCCC(O)/C=C/C1CCC(=O)C1CCC(C)CCCC(=O)O` (mixture of isomers) [Example 5, rac. 15-α-Hydroxy-5-methyl-9-oxo-13-trans-prostenoic Acid], in experiment [1] (in words), the spasmogen activity entry is “good spasmogen activity”. The EC50 in experiment [1] (isolated rat stomach) was 0.2 µg/mL. For the same compound, the bronchodilating activity entry in experiment [2] (in words, irritant not specified) is on record as “good bronchodilating activity”. Further, the ED50 in experiment [3] is 0.4 µg/kg. In the experiment on blood pressure (cat) (after 5 μ/kg i.v. (cat)), the “Blood pressure … (systolic)” value is recorded as -20 mm Hg and the “Blood pressure … (diastolic)” value is listed as -30 mm Hg. In the experiment with blood pressure (cat) (in words, compared with 15-α-hydroxy-9-oxo-13-trans-prostenoic acid), the blood-pressure lowering activity result is “reduced as compared with 15-α-hydroxy-9-oxo-13-trans-prostenoic acid”.

With `CCCCCC(O)C=C[C@H]1CCC(O)[C@@H]1CC=CCOCC(=O)O` (mixture of isomers) [Example 29 A, rac. 9,15-dihydroxy-3-oxa-5,13-trans-prostadienic acid], the “ED50 in the isolated rat stomach” value in experiment [1] (isolated rat stomach) was 3.1 µg/mL (≈ 9.11 µM).

`CCCCCC(O)/C=C/C1CCC(=O)C1CCCCCCC(=O)O` (mixture of isomers) [Example 4, rac. 15-α-Hydroxy-9-oxo-13-trans-prostenoic Acid]: the EC50 in experiment [1] (isolated rat stomach) was found to be 0.1 µg/mL. Besides, the ED50 in experiment [2] came to 0.1 µg/kg. In addition, in experiment [3], the ED50 came out at 0.1 µg/kg. Also, in the experiment with blood pressure (cat) (at 0.5 μg/kg i.v. (cat)), the “Blood pressure … (systolic)” value is listed as -22 mm Hg and the “Blood pressure … (diastolic)” value is -27 mm Hg.

In the case of `CCCCCC(O)/C=C/C1CCC(=O)C1CCCC(C)CCC(=O)O` (mixture of isomers) [Example 6, rac. 15-α-Hydroxy-4-methyl-9-oxo-13-trans-prostenoic Acid], in experiment [1] (isolated rat stomach), the EC50 was determined as 0.5 µg/mL. Also, the ED50 in experiment [2] came out at 0.9 µg/kg. For the same compound, the ED50 in experiment [3] worked out at 0.5 µg/kg. Besides, in the experiment on blood pressure (cat) (after 5 μ/kg i.v. (cat)), the “Blood pressure … (systolic)” value was -45 mm Hg and the “Blood pressure … (diastolic)” value is -50 mm Hg.

On to `CCCCCC(O)/C=C/C1CCC(=O)C1CCCCCC(C)C(=O)O` (mixture of isomers) [Example 8, rac. 15-α-Hydroxy-2-methyl-9-oxo-13-trans-prostenoic Acid], for which the EC50 in experiment [1] (isolated rat stomach) was found to be 1.3 µg/mL. The ED50 in experiment [3] is more than 10 µg/kg. Moreover, in the experiment with blood pressure (cat) (after 5 μ/kg i.v. (cat)), the “Blood pressure (modifications in mm Hg), one value printed (systolic and diastolic not separated)” value is reported as 0 mm Hg.
